Two compounds from patent publication US10682371B2, “Small molecule conjugates specifically activated in tumor microenvironment for targeting and use thereof” (priority 2014, dated 2020) can be followed below.

One series deals with macrophage. Nature of the series: Macrophage precursor antigen (F4/80) positive cells in CD45 positive cells of scar/CNV tissue, flow cytometry. It is filed as in vivo, C57 mice. To be noted: 50 mW laser, 48 hours after treatment. How it is done: (§1) Production and treatment of scar. […] Two weeks later, eye tissues were taken from 4 animals of each group for immunohistochemical (HE) staining. For another 4 animals, they were subjected to fixed irradiation through photocoagulation by 50 mW laser and then to treatment. 48 hours later, their eye tissues were taken, homogenated, filtered to isolate individual cells in the scar and choroidal neovascularization (CNV) tissues. The cells were washed by buffer twice and stained by biotin-conjugated anti-F4/80 (biotin-labeled precursor cell antigen from macrophage) and FITC-conjugated anti-CD45 (isothiocyanate fluorescein labeled leucocyte common antigen) at ambient temperature for 1 hour. Then the cells were washed by PBS containing 1% fetal bovine serum twice and then analyzed for the ratio of the macrophage precursor antigen positive cells in the leucocyte common antigen (CD45) positive cells by flow cytometry.
In general terms: In flow cytometry, cells or beads pass a laser one at a time.

Series [1] in a line: Maximum tolerated dose (MTD) / acute toxicity by single intravenous injection. To be noted: female, BALB/C, mouse, in vivo, iv.
The test system of the next series is HT1080 cells. Description: Tumor treatment in nude mice, HT1080 model (Example 61). The conditions noted are these: for Size of tumor (mm^3) Day 13 / inhibitory rate on tumor Day 13 / Size of tumor (mm^3) Day 26 / inhibitory rate on tumor (Day 26): HT1080 in nude mice, IV once weekly for four weeks, E1-E4 15 mg/kg, mitomycin 2 mg/kg; for Inhibition on tumor growth, in words: HT1080, compared with mitomycin group and control group. It counts as in vivo. How it is done:
1) HT1080 cells were purchased from American type culture collection (ATCC) and identified according the specification provided by ATCC. Cells were cultivated in DMEM culture solution containing 10% fetal bovine serum at 37° C. and 5% CO2. The cells were passaged for every three days and cells within the 15th passage were used.
2) Production of tumor. 5×10^6 HT1080 cells were subcutaneously injected to the back of the nude mice. Mice were randomly grouped after the tumor reached at least 100 mm^3. Then treatment began and the day on which the treatment began was day 1.
(§2) […]. The control group was administered by physiological saline. Drugs were administered once weekly for four weeks.

For another series, the system named is Panc-1 cells. Nature of the series: Tumor treatment in nude mice, Panc-1 model (Example 60). It is filed as in vivo. To be noted: for Size of tumor (mm^3) Day 10 / inhibitory rate on tumor Day 10 / Size of tumor (mm^3) Day 24 / inhibitory rate on tumor Day 24: Panc-1 in nude mice, IV once weekly for four weeks, E1-E4 15 mg/kg, mitomycin 2 mg/kg; for Inhibition on tumor growth, in words: Panc-1, compared with mitomycin group and control group. Here is the method: 1) Panc-1 cells were purchased from American type culture collection (ATCC) and identified according the specification provided by ATCC. Cells were cultivated in DMEM culture solution containing 10% fetal bovine serum at 37° C. and 5% CO2. The cells were passaged for every three days and cells within the 15th passage were used.
2) Production of tumor. 5×10^6Panc-1 cells were subcutaneously injected to the back of the nude mice. Mice were randomly grouped after the tumor reached at least 100 mm^3. Then treatment began and the day on which the treatment began was day 1.
as §2

The subject of series [2] is scar and choroidal neovascularization (CNV). Description: Inhibition of scar and choroidal neovascularization (CNV) by eye drops after laser photocoagulation. To be noted: for Maximal scar radius observed by pathological staining (pixel): 150 mW laser photocoagulation, eye drops daily, two weeks, C57 mice; for Treatment effect on scar radius and inhibition of macrophage, in words: eye drops, compared to the control group and the mitomycin group. It is filed as in vivo, C57 mice. Here is the method: Animal: C57 mice of 16 weeks old, all female and 8 animals in each group.
as §1

For series [3], the system named is Human chronic leukemia K562. Description: Multiple tumor models in nude mice: K562. It is filed as in vivo. To be noted: 15 mg/kg once weekly for three weeks, Day 26. How it is done:
(§3) 1) Corresponding tumor cells were purchased from American type culture collection (ATCC) and identified according the specification provided by ATCC. Cells were cultivated in DMEM culture solution containing 10% fetal bovine serum at 37° C. and 5% CO2. The cells were passaged for every three days and cells within the 15th passage were used.
(§4) 2) Production of tumor. 5×10^6 corresponding cells were subcutaneously injected to the back of the nude mice. Mice were randomly grouped after the tumor reached at least 100 mm^3. Then treatment began and the day on which the treatment began was day 1.
(§5) 3) Course of treatment. […] The control group was administered by physiological saline. Animals were administered once weekly for three weeks.
(§6) 3) Course of treatment. According to the clinical application of A1, A1 was administered in a dose of ⅙ MTD, i.v., 17.6 μmol/kg. The control group was administered by physiological saline. Animals were administered once weekly for three weeks.
(§7) 3) Course of treatment. According to the clinical application of B1, B1 was administered in a dose of ⅙ MTD, i.v., 17.6 μmol/kg. The control group was administered by physiological saline. Animals were administered once weekly for three weeks.
as §5, §5

The subject of series [4] is Human ovarian cancer SK-OV-3. Description: Multiple tumor models in nude mice: SK-OV-3. It counts as in vivo. To be noted: 15 mg/kg once weekly for three weeks, Day 26. Here is the method:
as §3, §4, §5, §6, §7, §5, §5

Series [5] concerns Human breast cancer MDA-MB435. Nature of the series: Multiple tumor models in nude mice: MDA-MB435. The conditions noted are these: 15 mg/kg once weekly for three weeks, Day 26. It is filed as in vivo. How it is done: as §3, §4, §5, §6, §7, §5, §5
A further series concerns Human liver cancer Hepg2. Nature of the series: Multiple tumor models in nude mice: Hepg2. It counts as in vivo. To be noted: 15 mg/kg once weekly for three weeks, Day 26. Here is the method: as §3, §4, §5, §6, §7, §5, §5
Series [6] concerns Human renal cancer OS-RC-2. Description: Multiple tumor models in nude mice: OS-RC-2. It counts as in vivo. The conditions noted are these: 15 mg/kg once weekly for three weeks, Day 26. How it is done:
as §3, §4, §5, §6, §7, §5, §5

As for `COCCOCCOCCOCCOCCOCC(=O)N[C@H](C)C(=O)N[C@H](C)C(=O)N[C@H](CC(N)=O)C(=O)Nc1ccc(COC(=O)N2[C@H]3[C@@H]2CN2C4=C(C(=O)C(N)=C(C)C4=O)[C@H](COC(N)=O)[C@]32OC)cc1` [Compound E2], the “F4/80+ cells among CD45+ cells (%)” value with macrophage was 7.7 ± 1.7%. Besides, the maximal tolerated dose (MTD) at 17 days in series [1] is ~90 mg/kg. Also, in the series with HT1080 cells, the “Size of tumor (mm^3) Day 13” value is listed as 378.11 ± 68.46 mm^3, the “inhibitory rate on tumor Day 13” value was 58.5%, the “Size of tumor (mm^3) Day 26” value was 137.60 ± 156.42 mm^3 and the “inhibitory rate on tumor (Day 26)” value is 91.3%. Moreover, the “Inhibition on tumor growth, in words” value in the series on HT1080 cells is recorded as “greatly improved”. In addition, in the series with Panc-1 cells, the “Size of tumor (mm^3) Day 10” value is on record as 60.17 ± 30.26 mm^3, the “inhibitory rate on tumor Day 10” value came out at 36.4%, the “Size of tumor (mm^3) Day 24” value was found to be 42.39 ± 62.24 mm^3 and the “inhibitory rate on tumor Day 24” value is 83.01%. In addition, in the series with Panc-1 cells, the “Inhibition on tumor growth, in words” value is “greatly improved”. For the same compound, in [2], the “Maximal scar radius observed by pathological staining (pixel)” value is reported as 348 ± 146 pixel; the “Treatment effect on scar radius and inhibition of macrophage, in words” value is “greatly improved treatment effect on scar radius and inhibition of macrophage”.

Turning to `COCCOCC(=O)N[C@H](C)C(=O)N[C@H](C)C(=O)N[C@H](CC(N)=O)C(=O)Nc1ccc(COC(=O)N2[C@@H]3CN4C5=C(C(=O)C(N)=C(C)C5=O)[C@H](COC(N)=O)[C@]4(OC)[C@@H]32)cc1` [Compound E1, 2-(2-methoxyethoxy) acetyl-L-Ala-L-Ala-L-Asn-4-amino benzyl mitomycin], the “F4/80+ cells among CD45+ cells (%)” value in the series on macrophage is given as 7.1 ± 1.4%. In addition, the “inhibitory rate on tumor (Day 26)” value in [3] is reported as 77.3%. Also, the “inhibitory rate on tumor (Day 26)” value in series [4] was found to be 84.5%. Also, the MTD at 17 days in series [1] was ~90 mg/kg. Further, the “inhibitory rate on tumor (Day 26)” value in series [5] was 86.3%. For the same compound, the “inhibitory rate on tumor (Day 26)” value with Human liver cancer Hepg2 came out at 85.7%. Besides, the “inhibitory rate on tumor (Day 26)” value in [6] is reported as 81.3%. Moreover, in the series with HT1080 cells, the “Size of tumor (mm^3) Day 13” value was 438.15 ± 47.96 mm^3, the “inhibitory rate on tumor Day 13” value was 51.9%, the “Size of tumor (mm^3) Day 26” value stood at 331.57 ± 114.74 mm^3 and the “inhibitory rate on tumor (Day 26)” value turned out to be 78.9%. Besides, in the series with HT1080 cells, the “Inhibition on tumor growth, in words” value is on record as “greatly improved”. In addition, in the series with Panc-1 cells, the “Size of tumor (mm^3) Day 10” value was found to be 76.42 ± 14.96 mm^3, the “inhibitory rate on tumor Day 10” value stood at 35.7%, the “Size of tumor (mm^3) Day 24” value stood at 84.62 ± 45.94 mm^3 and the “inhibitory rate on tumor Day 24” value is 66.1%. Further, the “Inhibition on tumor growth, in words” value with Panc-1 cells is “greatly improved”. In series [2], the “Maximal scar radius observed by pathological staining (pixel)” value was 332 ± 124 pixel; the “Treatment effect on scar radius and inhibition of macrophage, in words” value is “greatly improved treatment effect on scar radius and inhibition of macrophage”.

Broadly, the MTD is the largest dose that counted as tolerated.
